Experiments:
Antibody to Thyroxine [1] = test: Competitive binding assay for thyroxine, dihydrofolate reductase activity read-out (Example 1E); conditions: 100 µl of 0.16 µM conjugate
Experimental: (§1) The standard assay consisted of 0.10 mM dihydrofolate (DHF), 0.10 mM NADPH, 0.001 unit/bovine liver dihydrofolate reductase (Sigma Chemical Co., St. Louis, MO) and 0.1 M sodium phosphate (pH 6.0) in a final volume of 2.0 ml. The reaction mixture without dihydrofolate was incubated at 37°C for 5 minutes, then the reaction was initiated by adding dihydrofolate, and an initial absorbance at 340 nm was recorded with a Gilford 250 spectrophotometer (Gilford Instrument Laboratories, Oberlin, OH). The reaction was allowed to proceed for 20 minutes at 37°C and then a final reading was recorded. The enzyme activity was expressed as the change in absorbance (AA) at 340 nanometers (nm) that occurred during the 20 minute (min) reaction.
The standard concentrations of NADPH, buffer, antibody to thyroxine and various concentrations of thyroxine were incubated at room remperature for a minimum of 30 seconds. Then 100 µl of […] methotrexate-aminobutylthyroxine was added and the mixture was incubated at room temperature for 2 minutes. Following the second incubation, dihydrofolate reductase was added and the mixture was incubated an additional 5 minutes at 37°C. The reaction was initiated and monitored in the usual manner.

Antibody to Thyroxine [2] = test: Titration of antibody to thyroxine with the labeled conjugate, dihydrofolate reductase activity read-out (Example 1D); format: binding; conditions: 75 µl of 0.16 µM conjugate (6 nM)
Experimental: as §1
Various concentrations of antibody to thyroxine and the standard concentrations of NADPH, 6 nM methotrexate-aminobutylthyroxine and buffers were incubated for 2 minutes at room temperature. Dihydrofolate reductase was then added, and the incubation was continued for 5 minutes at 37°C. The enzyme catalyzed reaction was initiated by addition of dihydrofolate and monitored as described above.

[3] = target: T1, bovine liver dihydrofolate reductase (Bos taurus, UniProt P00376); test: Inhibition of dihydrofolate reductase by the labeled conjugate (Example 1C); format: biochemical; conditions: for ΔA340/20 Min: 37°C, without conjugate 0.645
T1 construct: bovine liver dihydrofolate reductase (Sigma Chemical Co., St. Louis, MO); purchased Sigma Chemical Co., St. Louis, MO; host or cells: bovine liver
T1 sequence (P00376 1-187): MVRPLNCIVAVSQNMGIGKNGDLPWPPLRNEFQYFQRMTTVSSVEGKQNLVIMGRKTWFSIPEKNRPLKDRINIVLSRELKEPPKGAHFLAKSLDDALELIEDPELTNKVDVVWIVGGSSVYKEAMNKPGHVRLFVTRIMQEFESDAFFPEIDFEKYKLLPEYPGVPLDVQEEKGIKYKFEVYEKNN
Experimental: as §1
Various concentrations of methotrexate-aminobutylthroxine conjugate were incubated with the standard concentrations of NADPH, dihydrofolate reductase and buffer for 5 minutes at 37°C. The reaction was initiated as discussed above with the addition of dihydrofolate.

[4] = test system: Rabbit antibody to thyroxine; test: Titration of antibody to thyroxine with the labeled conjugate, thiazoyl blue colorimetric read-out (Example 2B); format: binding; conditions: 40 µl Reagent 5 (conjugate), 10 minutes
Experimental: Thyroxine-free serum was prepared by treatment of pooled human serum with charcoal [Larsen et al, J. Clin. Endocrinol. Metab. 37:177(1973)]. All reagents except thyroxine-free serum or as otherwise indicated below were prepared in 0.1 M sodium phosphate buffer, pH 6.5, containing 0.3 M potassium chloride and 0.005% sodium azide. • Reagent 1 - Mixture of 6.5 ml of 10 mM 8-anilinonaphthalene sulfonic acid and 10 ml of thyroxine-free serum. • Reagent 2 - Mixture of 1.0 ml of bovine liver dihydrofolate reductase (0.152 units/ml) and 1.0 ml of 11 mM thiazoyl blue. • Reagent 3 - 0.114 mM dihydrofolate in 0.085 M sodium phosphate buffer, pH 6.2, 0.255 mM potassium chloride, and 0.043% sodium azide. • Reagent 4 - Rabbit antibody to thyroxine diluted 10-fold in buffer. • Reagent 5 - […] methotrexate-thyroxine conjugate (Part A above) in 10 mM sodium carbonate buffer, pH 9.5. • Reagent 6 - 10 mM NADPH in 10 mM sodium carbonate buffer, pH 9.5.
Various amounts of Reagent 4 (indicated in Table 4 below) were mixed with 40 µl of Reagent 5, 90 µl of Reagent 6, and sufficient buffer to make a final volume of 625 pl. Then 175 µl of Reagent 1 was added to each followed by 250 µl of buffer and the incubation was continued. After 10 minutes from the addition of Reagent 3, the absorbance at 560 nm was recorded for each reaction mixture and shown in Table 4.

Row | Structure (SMILES) | ΔA340/20 Min (Antibody to Thyroxine [1]; 30 µl antibody to thyroxine 1:4 dil, no thyroxine) | ΔA340/20 Min (Antibody to Thyroxine [1]; no antibody, without conjugate 0.620) | ΔA340/20 Min (Antibody to Thyroxine [2]; 10 µl antibody to thyroxine 1:9 dilution) | ΔA340/20 Min (Antibody to Thyroxine [2]; 20 µl antibody to thyroxine 1:9 dilution) | ΔA340/20 Min (Antibody to Thyroxine [2]; 40 µl antibody to thyroxine 1:9 dilution) | ΔA340/20 Min (Antibody to Thyroxine [2]; 80 µl antibody to thyroxine 1:9 dilution) | ΔA340/20 Min (Antibody to Thyroxine [2]; 160 µl antibody to thyroxine 1:9 dilution) | ΔA340/20 Min (Antibody to Thyroxine [2]; no antibody, without conjugate and antibody 0.691) | ΔA340/20 Min ([3]; 25 μl of 0.16 μM conjugate in 2.0 ml final volume) | ΔA340/20 Min ([3]; 50 μl of 0.16 μM conjugate in 2.0 ml final volume) | ΔA340/20 Min ([3]; 100 μl of 0.16 μM conjugate in 2.0 ml final volume) | ΔA340/20 Min ([3]; 200 μl of 0.16 μM conjugate in 2.0 ml final volume) | inhibition of dihydrofolate reductase (verdict in words) ([3]; various concentrations of conjugate, Table 1) | Average Absorbance (560 nm) ([4]; 20 µl Reagent 4 (rabbit antibody diluted 10-fold)) | Average Absorbance (560 nm) ([4]; 40 µl Reagent 4 (rabbit antibody diluted 10-fold)) | Average Absorbance (560 nm) ([4]; 80 µl Reagent 4 (rabbit antibody diluted 10-fold)) | Average Absorbance (560 nm) ([4]; 160 µl Reagent 4 (rabbit antibody diluted 10-fold)) | Average Absorbance (560 nm) ([4]; 320 µl Reagent 4 (rabbit antibody diluted 10-fold)) | Average Absorbance (560 nm) ([4]; no antibody solution, thyroxine-free serum present)
1 | CN(Cc1cnc2nc(N)nc(N)c2n1)c1ccc(C(=O)NC(CCC(=O)NCCCCNC(Cc2cc(I)c(Oc3cc(I)c(O)c(I)c3)c(I)c2)C(=O)O)C(=O)O)cc1 (stereo not shown) [Methotrexate-Aminobutyl-Thyroxine, Methotrexate-aminobutylthyroxine Conjugate] | 0.645 | 0.458 | 0.579 | 0.602 | 0.664 | 0.656 | 0.667 | 0.499 | 0.566 | 0.495 | 0.433 | 0.306 | effective inhibitor | – | – | – | – | – | –
2 | CN(Cc1cnc2nc(N)nc(N)c2n1)c1ccc(C(=O)NC(CCC(=O)NC(Cc2cc(I)c(Oc3cc(I)c(O)c(I)c3)c(I)c2)C(=O)O)C(=O)O)cc1 (stereo not shown) [methotrexate-thyroxine conjugate, Methotrexate-thyroxine Conjugate] | – | – | – | – | – | – | – | – | – | – | – | – | – | 0.538 | 0.581 | 0.632 | 0.689 | 0.737 | 0.478
